Results as given in US20240336608A1, “IL4I1 INHIBITORS AND METHODS OF USE” (Merck Sharp & Dohme LLC, priority 2023, published 2024).

Molecular target: T1, recombinant IL4I1 (Homo sapiens, UniProt Q96RQ9)
T1 construct: purchased R&D Systems 5684-AO-020
T1 sequence (Q96RQ9 22-567): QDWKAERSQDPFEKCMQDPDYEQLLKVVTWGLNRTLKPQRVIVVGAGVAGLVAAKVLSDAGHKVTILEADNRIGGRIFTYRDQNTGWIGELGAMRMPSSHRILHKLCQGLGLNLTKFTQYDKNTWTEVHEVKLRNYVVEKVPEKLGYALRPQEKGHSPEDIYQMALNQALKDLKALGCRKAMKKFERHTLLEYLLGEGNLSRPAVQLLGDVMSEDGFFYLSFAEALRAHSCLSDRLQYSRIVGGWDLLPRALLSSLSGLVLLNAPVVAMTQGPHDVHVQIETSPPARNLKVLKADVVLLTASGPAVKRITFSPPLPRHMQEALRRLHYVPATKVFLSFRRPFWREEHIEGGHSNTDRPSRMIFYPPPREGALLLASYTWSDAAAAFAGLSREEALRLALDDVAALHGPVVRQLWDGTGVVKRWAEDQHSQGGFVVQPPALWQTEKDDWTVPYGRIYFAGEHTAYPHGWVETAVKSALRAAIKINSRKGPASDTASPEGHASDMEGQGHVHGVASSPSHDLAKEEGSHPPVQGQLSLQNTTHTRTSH
Assay: IL4I1 Enzymatic Assay (Amplex Red/HRP coupled detection of H2O2, fluorescence)
Type: biochemical
Conditions: 1 nM recombinant IL4I1; four-hour pre-incubation with compound; 1 mM each Phe, Tyr, Trp; ten-point titration
Procedure, shortened: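 Recombinant IL4I1 (1 nM final) pre-incubated 4 h at ambient temperature with compound (0.5% DMSO) in 50 mM Hepes pH 7.0, 0.005% Tween20; reaction started with 1 mM each Phe/Tyr/Trp plus excess Amplex Red/HRP, run 120 min. H2O2 read as resorufin fluorescence; EC50 from 10-point four-parameter fit.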

| Structure (SMILES) | EC50 |
| --- | --- |
| O=C(NCc1nnc(-c2ccccc2)s1)c1cn([C@H]2C[C@H](O)C2)nn1 [Example 281] | 11 nM |
| O=C(NCc1nnc(-c2ccccc2)s1)c1cn([C@H]2C[C@@H](O)C2)nn1 [Example 282] | 5 nM |
| Cn1nnc(C(=O)NCc2nnc(-c3ccccc3)s2)c1F [Example 289, 5-fluoro-1-methyl-N-((5-phenyl-1,3,4-thiadiazol-2-yl)methyl)-1H-1,2,3-triazole-4-carboxamide] | 301 nM |
| O=C(NCc1cc(-c2ccccc2)on1)c1cn(CC(F)F)nn1 [Example 292, 1-(2,2-difluoroethyl)-N-((5-phenylisoxazol-3-yl)methyl)-1H-1,2,3-triazole-4-carboxamide] | 5 nM |
| O=C(NCc1ccc(-c2ccccc2)nn1)c1cn(CC(F)F)nn1 [Example 293, 1-(2,2-difluoroethyl)-N-((6-phenylpyridazin-3-yl)methyl)-1H-1,2,3-triazole-4-carboxamide] | 21 nM |
| Cn1cc(C(=O)NCc2nnc(N3CCCCC3)s2)nn1 [Example 294, 1-methyl-N-((5-(piperidin-1-yl)-1,3,4-thiadiazol-2-yl)methyl)-1H-1,2,3-triazole-4-carboxamide] | 251 nM |
| Cn1cc(C(=O)NCc2nnc(-c3ccc(O)cc3)s2)nn1 [Example 295, N-[[5-(4-hydroxyphenyl)-1,3,4-thiadiazol-2-yl]methyl]-1-methyl-triazole-4-carboxamide] | 81 nM |
| Cn1cc(C(=O)NCc2nnc(-c3ccc(Cl)cc3)s2)nn1 [Example 296, N-((5-(4-chlorophenyl)-1,3,4-thiadiazol-2-yl)methyl)-1-methyl-1H-1,2,3-triazole-4-carboxamide] | 418 nM |
| Cn1cc(C(=O)NCc2nnc(-c3cncs3)s2)nn1 [Example 297, 1-methyl-N-((5-(thiazol-5-yl)-1,3,4-thiadiazol-2-yl)methyl)-1H-1,2,3-triazole-4-carboxamide] | 79 nM |
| Cn1cc(C(=O)NCc2nnc(-c3cn[nH]c3)s2)nn1 [Example 299, N-((5-(1H-pyrazol-4-yl)-1,3,4-thiadiazol-2-yl)methyl)-1-methyl-1H-1,2,3-triazole-4-carboxamide] | 215 nM |
| O=C(NCc1nnc(-c2ccccc2)s1)c1cn(C[C@H](F)CO)nn1 [Example 302, (S)-1-(2-fluoro-3-hydroxypropyl)-N-((5-phenyl-1,3,4-thiadiazol-2-yl)methyl)-1H-1,2,3-triazole-4-carboxamide] | 5 nM |
| C[C@H](CO)n1cc(C(=O)NCc2nnc(-c3ccccc3)s2)nn1 [Example 303, (R)-1-(1-hydroxypropan-2-yl)-N-((5-phenyl-1,3,4-thiadiazol-2-yl)methyl)-1H-1,2,3-triazole-4-carboxamide] | 6 nM |
| CC(C)n1cc(C(=O)NCc2nnc(-c3ccccc3)s2)nn1 [Example 304, 1-isopropyl-N-((5-phenyl-1,3,4-thiadiazol-2-yl)methyl)-1H-1,2,3-triazole-4-carboxamide] | 4 nM |
| O=C(NCc1nnc(-c2ccccc2)s1)c1cn(C2CCOC2)nn1 (stereo not drawn) [Example 305, N-((5-phenyl-1,3,4-thiadiazol-2-yl)methyl)-1-(tetrahydrofuran-3-yl)-1H-1,2,3-triazole-4-carboxamide] | 29 nM |
| O=C(NCc1nnc(-c2ccccc2)s1)c1cnnn1C1CCOC1 (stereo not drawn) [Example 306, N-((5-phenyl-1,3,4-thiadiazol-2-yl)methyl)-1-(tetrahydrofuran-3-yl)-1H-1,2,3-triazole-5-carboxamide] | 654 nM |
| O=C(NCc1nnc(-c2ccccc2)s1)c1cn(C2CS(=O)(=O)C2)nn1 [Example 307, 1-(1,1-dioxidothietan-3-yl)-N-((5-phenyl-1,3,4-thiadiazol-2-yl)methyl)-1H-1,2,3-triazole-4-carboxamide] | 73 nM |
| CS(=O)(=O)Cn1cc(C(=O)NCc2nnc(-c3ccccc3)s2)nn1 [Example 308, 1-((methylsulfonyl)methyl)-N-((5-phenyl-1,3,4-thiadiazol-2-yl)methyl)-1H-1,2,3-triazole-4-carboxamide] | 75 nM |
| CC(C)(C(N)=O)n1cc(C(=O)NCc2nnc(-c3ccccc3)s2)nn1 [Example 312, 1-(1-amino-2-methyl-1-oxopropan-2-yl)-N-((5-phenyl-1,3,4-thiadiazol-2-yl)methyl)-1H-1,2,3-triazole-4-carboxamide] | 12 nM |
| CC(C)(C#N)n1cc(C(=O)NCc2nnc(-c3ccccc3)s2)nn1 [Example 313, 1-(2-cyanopropan-2-yl)-N-((5-phenyl-1,3,4-thiadiazol-2-yl)methyl)-1H-1,2,3-triazole-4-carboxamide] | 26 nM |

Now from value to compound:

| EC50 | Structure (SMILES) |
| --- | --- |
| 8 nM | Cc1ccc(-n2cc(C(=O)NCc3nnc(-c4ccccc4)s3)nn2)c(Br)n1 [Example 279, 1-(2-bromo-6-methylpyridin-3-yl)-N-((5-phenyl-1,3,4-thiadiazol-2-yl)methyl)-1H-1,2,3-triazole-4-carboxamide] |
| 859 nM | Cc1ncc(-n2cc(C(=O)NCc3nnc(-c4ccccc4)s3)nn2)c(C)n1 [Example 280, 1-(2,4-dimethylpyrimidin-5-yl)-N-((5-phenyl-1,3,4-thiadiazol-2-yl)methyl)-1H-1,2,3-triazole-4-carboxamide] |
| 165 nM | Cc1ccc(-c2cc(C(=O)NCc3nnc(-c4ccccc4)s3)on2)c(C)n1 [Example 283, 3-(2,6-dimethylpyridin-3-yl)-N-((5-phenyl-1,3,4-thiadiazol-2-yl)methyl)isoxazole-5-carboxamide] |
| 74 nM | O=C(NCc1cc(-c2ccncc2)no1)c1cn(C2CC2)nn1 [Example 284, 1-cyclopropyl-N-((3-(pyridin-4-yl)isoxazol-5-yl)methyl)-1H-1,2,3-triazole-4-carboxamide] |
| 9 nM | O=C(NCc1nnc(-c2ccccc2)s1)c1cn(-c2cn[nH]c2)nn1 [Example 287, N-((5-phenyl-1,3,4-thiadiazol-2-yl)methyl)-1-(1H-pyrazol-4-yl)-1H-1,2,3-triazole-4-carboxamide] |
| 39 nM | Cn1cc(-n2cc(C(=O)NCc3nnc(-c4ccccc4)s3)nn2)cn1 [Example 288, 1-(1-methyl-1H-pyrazol-4-yl)-N-((5-phenyl-1,3,4-thiadiazol-2-yl)methyl)-1H-1,2,3-triazole-4-carboxamide] |
| 209 nM | O=C(NCc1ccc(-c2ccccc2)nn1)c1cn(C2COC2)nn1 [Example 290, 1-(oxetan-3-yl)-N-((6-phenylpyridazin-3-yl)methyl)-1H-1,2,3-triazole-4-carboxamide] |
| 12 nM | O=C(NCc1cc(-c2ccccc2)no1)c1cn(CC(F)F)nn1 [Example 291, 1-(2,2-difluoroethyl)-N-((3-phenylisoxazol-5-yl)methyl)-1H-1,2,3-triazole-4-carboxamide] |
| 14 nM | Cc1ccc(-n2cc(C(=O)NCc3nnc(-c4cncs4)s3)nn2)c(C)n1 [Example 298, 1-(2,6-dimethylpyridin-3-yl)-N-((5-(thiazol-5-yl)-1,3,4-thiadiazol-2-yl)methyl)-1H-1,2,3-triazole-4-carboxamide] |
| 22 nM | Cc1ccc(-n2cc(C(=O)NCc3nnc(-c4cn[nH]c4)s3)nn2)c(C)n1 [Example 300, N-((5-(1H-pyrazol-4-yl)-1,3,4-thiadiazol-2-yl)methyl)-1-(2,6-dimethylpyridin-3-yl)-1H-1,2,3-triazole-4-carboxamide] |
| 8 nM | Cc1nc(OC(F)F)ccc1-n1cc(C(=O)NCc2nnc(-c3ccccc3)s2)nn1 [Example 301, 1-(6-(difluoromethoxy)-2-methylpyridin-3-yl)-N-((5-phenyl-1,3,4-thiadiazol-2-yl)methyl)-1H-1,2,3-triazole-4-carboxamide] |
| 720 nM | O=C(NCc1nnc(-c2ccccc2)s1)c1cn(-c2ccncn2)nn1 [Example 309, N-((5-phenyl-1,3,4-thiadiazol-2-yl)methyl)-1-(pyrimidin-4-yl)-1H-1,2,3-triazole-4-carboxamide] |
| 182 nM | O=C(NCc1nnc(-c2ccccc2)s1)c1cn(-c2ccccn2)nn1 [Example 310, N-((5-phenyl-1,3,4-thiadiazol-2-yl)methyl)-1-(pyridin-2-yl)-1H-1,2,3-triazole-4-carboxamide] |
| 294 nM | O=C(NCc1nnc(-c2ccccc2)s1)c1cn(-c2cnccn2)nn1 [Example 311, N-((5-phenyl-1,3,4-thiadiazol-2-yl)methyl)-1-(pyrazin-2-yl)-1H-1,2,3-triazole-4-carboxamide] |
| 12 nM | Cc1ccc(-n2cc(C(=O)NCc3cc(-c4ccncc4)no3)nn2)c(C)n1 [Example 314, 1-(2,6-dimethylpyridin-3-yl)-N-((3-(pyridin-4-yl)isoxazol-5-yl)methyl)-1H-1,2,3-triazole-4-carboxamide] |
| 86 nM | Cc1ncccc1-n1cc(C(=O)NCc2nnc(-c3ccccc3)s2)nn1 [Example 315, 1-(2-methylpyridin-3-yl)-N-((5-phenyl-1,3,4-thiadiazol-2-yl)methyl)-1H-1,2,3-triazole-4-carboxamide] |
| 241 nM | O=C(NCc1nnc(-c2ccccc2)s1)c1cn(-c2cncnc2)nn1 [Example 316, N-((5-phenyl-1,3,4-thiadiazol-2-yl)methyl)-1-(pyrimidin-5-yl)-1H-1,2,3-triazole-4-carboxamide] |
